Reference: patent publication US20200231545A1, “CHARGED ION CHANNEL BLOCKERS AND METHODS FOR USE THEREOF” (President and Fellows of Harvard College, priority 2019, published 2020)
“And” between values parts separate entries of the source, which are not always exact repeats. Identical values can stand only once.

Legend:
[1] = system: endogenous Nav currents in TRPV1 expressing DRG neurons; assay: Patch clamp of sodium currents in DRG neurons after pretreatment with capsaicin + blocker; assay type: cell-based, mouse; conditions: 100 micromolar with 300 nM capsaicin for 30 minutes, then washed off
Experimental: Charged sodium channel blockers were tested for intracellular block of voltage-gated sodium currents after entry through activated TRPV1 channels in dissociated mouse dorsal root ganglia (DRG) neurons in vitro. DRG neurons from 8-week-old C57/B16 mice were removed and placed in DMEM containing 1% penicillin-streptomycin (Sigma), then treated for 90 minutes with 5 mg/mL collagenase, 1 mg/mL Dispase II (Roche). Cells were triturated in the presence of DNase I […] (50 U), centrifuged through 10% BSA (Sigma), resuspended in 1 mL of Neurobasal medium (Sigma)+1X B27 supplement (Thermo Fisher) and 1% penicillin-streptomycin, and plated onto 35-mm tissue culture dishes (Becton Dickinson) coated with 20 μg/mL laminin, at 8,000-9,000 cells per dish. Cultures were incubated at 37° C. under 5% CO2. Recordings were made at room temperature within 24 hours of plating. The DRG neurons were treated with 300 nM capsaicin alone or 300 nM capsaicin+100 μM charged sodium channel blocker in external solution for 30 minutes, after which the blocker was washed off with fresh external solution. Whole-cell voltage-clamp recordings of sodium currents were performed in small diameter DRG neurons and then the expression of TRPV1 measured by perfusion of 1 μM capsaicin. […]

Nav1.7 sodium channels = target: T1, Nav1.7 sodium channels (Homo sapiens, UniProt Q15858); assay: Thallium flux assay, extracellular block of sodium channel in HEK293 cells; assay type: cell-based
T1 construct: expressed in transfected cells
Experimental: (§1) Charged sodium channel blockers were tested for extracellular block of voltage-gated sodium channels in a thallium flux assay. Briefly, human embryonic kidney (HEK293) cells stably expressing either the Nav1.5 or Nav1.7 sodium channels were plated in 384 well plates. After overnight culture at 37° C., the cell culture medium was replaced the thallium-sensitive FluxOR dye (FluxOR assay kit, Thermo Fisher). Following a 60 minute incubation at room temperature, the dye-loading solution was replaced with assay buffer and the plates were loaded into a FDSS 7000EX multi-well plate reader (Hamamatsu). Dye fluorescence was measured using Fluo-4 filters (excitation 470 nm, emission 540 nm) at 1 Hz. Baseline fluorescence was measured for 30 s, followed by the addition of 15 μL/well of charged sodium channel blocker compounds. 10 minutes after compound addition, the cells were stimulated with a Tl^+ stimulus buffer and fluorescence measured. Tetraethylammonium (TEA) was used to block Kv channels and veratridine to block Nav channel inactivation. The fluorescence data was normalized with respect to no veratridine stimulus buffer control in order to isolate and measure the Nav channel component of the thallium flux.

Nav1.5 sodium channels = target: T2, Nav1.5 sodium channels (Homo sapiens, UniProt Q14524); assay: as above; assay type: cell-based; conditions: HEK cells
T2 construct: expressed in transfected cells
Experimental: as §1

[2] = system: citric acid induced cough; assay: Citric acid induced cough in ovalbumin sensitized guinea pigs, inhaled treatment; assay type: in vivo, guinea pig; conditions: for inhibition of cough: inhaled one hour before 400 mM citric acid challenge, versus vehicle group; for Cough Count: total cough count of each individual animal, inhaled, one hour before citric acid
Experimental: Dunkin Hartley Guinea pigs were used in this study (male and female). On Day 0 all animals were sensitized with an intraperitoneal and subcutaneous injection of 50 mg chicken egg albumin (ovalbumin). Animals were administered 1 mL of a 50 mg/mL ovalbumin in 0.9% w/v saline solution via the intraperitoneal route and 0.5 mL of the same solution into 2 separate subcutaneous sites (1 mL in total divided between the left and right flank). All animals were administered a single intraperitoneal dose of pyrilamine (15 mg/kg) at a dose volume of 1 mL/kg approximately 30 minutes prior to ovalbumin challenge on Day 14 to inhibit histamine-induced bronchospasm. On Day 14, animals were challenged with aerosolised ovalbumin in 0.9% w/v saline (3 mg/mL) for 15 min.
Animals were placed in groups in an acrylic box. Then 8 mL of ovalbumin in saline was placed in each of two jet nebulisers (Sidestream®). Compressed air was passed through each nebuliser at approximately 6 L/min and the output of the nebulisers passed into the box containing the animals. On Day 15, approximately 24 hours after the inflammatory challenge with ovalbumin, animals were dosed with either vehicle, compound 1, or compound 2 by inhalation. One hour following the end of vehicle, compound 1, or compound 2 administration on Day 15, animals were placed into a whole body plethysmograph connected to a Buxco Finepointe system. All animals were then exposed to nebulized 400 mM citric acid for 7 minutes via an Aeroneb® nebuliser.
Cough counts and respiratory parameters (respiratory rate, tidal volume, minute volume and Penh) were recorded throughout the exposure period and for 10 minutes following the end of nebulization period.

human Nav1.7 channels = target: T3, human Nav1.7 channels (Homo sapiens, UniProt Q15858); assay: Whole-cell patch clamp, use-dependent block of sodium current, compound dialyzed inside cells; assay type: cell-based; conditions: 10 micromolar intracellular; stimulation series 0.05 to 10 Hz; HEK293 hNav1.7
T3 construct: expressed in transfected cells
Experimental: Whole-cell recordings were made of currents carried by voltage-activated sodium channels in HEK293 cells stably expressing human Nav1.7 channels. Recordings were made using patch pipettes with resistances of 2-3.5 MO when filled with internal solution, consisting of 61 mM CsF, 61 mM CsCl, 9 mM NaCl, 1.8 mM MgCl2, 9 mM EGTA, 14 mM creatine phosphate (tris salt), 4 mM MgATP, and 0.3 mM GTP (tris salt), 9 mM HEPES, pH adjusted to 7.2 with CsOH. The shank of the electrode was wrapped with Parafilm in order to reduce capacitance and allow optimal series resistance compensation without oscillation. Seals were obtained and the whole-cell configuration established with cells in Tyrode's solution (155 mM NaCl, 3.5 mM KCl, 1.5 mM CaCl2), 1 mM MgCl2, 10 mM HEPES, 10 mM glucose, pH adjusted to 7.4 with NaOH) with 10 mM TEACl. To ensure complete dialysis with pipette solution containing the test compounds, recordings began after 5 to 10 minutes after establishment of the whole-cell configuration.
Currents were recorded at room temperature (21-23° C.) with an Axopatch 200 amplifier or […] amplifier and filtered at 5-10 kHz with a low-pass Bessel filter. The amplifier was tuned for partial compensation of series resistance (typically 70-80% of a total series resistance of 4-10 MO). Currents were digitized using a Digidata 1322A data acquisition interface controlled by pClamp9 or pClamp10 software (Axon Instruments) and analyzed using programs written in Igor Pro 4.0 (Wavemetrics, Lake Oswego, Oreg.). Currents were corrected for linear capacitative and leak currents determined using 5 mV hyperpolarizations delivered from the resting potential (usually −80 or −100 mV) and then appropriately scaled and subtracted.
Sodium currents were evoked by 30-msec depolarizations from −100 mV to −20 mV. To assay use-dependent block, pulses were delivered at series of increasing rates: 0.05 Hz for 1-min, 0.33 Hz for 1-min, 1 Hz for 1-min, 3 Hz for 1-min, 5 Hz for 30 seconds, 10 Hz for 30 seconds, with 1 minute rest between each series of pulses. […]

T3 sequence (Q15858 whole entry): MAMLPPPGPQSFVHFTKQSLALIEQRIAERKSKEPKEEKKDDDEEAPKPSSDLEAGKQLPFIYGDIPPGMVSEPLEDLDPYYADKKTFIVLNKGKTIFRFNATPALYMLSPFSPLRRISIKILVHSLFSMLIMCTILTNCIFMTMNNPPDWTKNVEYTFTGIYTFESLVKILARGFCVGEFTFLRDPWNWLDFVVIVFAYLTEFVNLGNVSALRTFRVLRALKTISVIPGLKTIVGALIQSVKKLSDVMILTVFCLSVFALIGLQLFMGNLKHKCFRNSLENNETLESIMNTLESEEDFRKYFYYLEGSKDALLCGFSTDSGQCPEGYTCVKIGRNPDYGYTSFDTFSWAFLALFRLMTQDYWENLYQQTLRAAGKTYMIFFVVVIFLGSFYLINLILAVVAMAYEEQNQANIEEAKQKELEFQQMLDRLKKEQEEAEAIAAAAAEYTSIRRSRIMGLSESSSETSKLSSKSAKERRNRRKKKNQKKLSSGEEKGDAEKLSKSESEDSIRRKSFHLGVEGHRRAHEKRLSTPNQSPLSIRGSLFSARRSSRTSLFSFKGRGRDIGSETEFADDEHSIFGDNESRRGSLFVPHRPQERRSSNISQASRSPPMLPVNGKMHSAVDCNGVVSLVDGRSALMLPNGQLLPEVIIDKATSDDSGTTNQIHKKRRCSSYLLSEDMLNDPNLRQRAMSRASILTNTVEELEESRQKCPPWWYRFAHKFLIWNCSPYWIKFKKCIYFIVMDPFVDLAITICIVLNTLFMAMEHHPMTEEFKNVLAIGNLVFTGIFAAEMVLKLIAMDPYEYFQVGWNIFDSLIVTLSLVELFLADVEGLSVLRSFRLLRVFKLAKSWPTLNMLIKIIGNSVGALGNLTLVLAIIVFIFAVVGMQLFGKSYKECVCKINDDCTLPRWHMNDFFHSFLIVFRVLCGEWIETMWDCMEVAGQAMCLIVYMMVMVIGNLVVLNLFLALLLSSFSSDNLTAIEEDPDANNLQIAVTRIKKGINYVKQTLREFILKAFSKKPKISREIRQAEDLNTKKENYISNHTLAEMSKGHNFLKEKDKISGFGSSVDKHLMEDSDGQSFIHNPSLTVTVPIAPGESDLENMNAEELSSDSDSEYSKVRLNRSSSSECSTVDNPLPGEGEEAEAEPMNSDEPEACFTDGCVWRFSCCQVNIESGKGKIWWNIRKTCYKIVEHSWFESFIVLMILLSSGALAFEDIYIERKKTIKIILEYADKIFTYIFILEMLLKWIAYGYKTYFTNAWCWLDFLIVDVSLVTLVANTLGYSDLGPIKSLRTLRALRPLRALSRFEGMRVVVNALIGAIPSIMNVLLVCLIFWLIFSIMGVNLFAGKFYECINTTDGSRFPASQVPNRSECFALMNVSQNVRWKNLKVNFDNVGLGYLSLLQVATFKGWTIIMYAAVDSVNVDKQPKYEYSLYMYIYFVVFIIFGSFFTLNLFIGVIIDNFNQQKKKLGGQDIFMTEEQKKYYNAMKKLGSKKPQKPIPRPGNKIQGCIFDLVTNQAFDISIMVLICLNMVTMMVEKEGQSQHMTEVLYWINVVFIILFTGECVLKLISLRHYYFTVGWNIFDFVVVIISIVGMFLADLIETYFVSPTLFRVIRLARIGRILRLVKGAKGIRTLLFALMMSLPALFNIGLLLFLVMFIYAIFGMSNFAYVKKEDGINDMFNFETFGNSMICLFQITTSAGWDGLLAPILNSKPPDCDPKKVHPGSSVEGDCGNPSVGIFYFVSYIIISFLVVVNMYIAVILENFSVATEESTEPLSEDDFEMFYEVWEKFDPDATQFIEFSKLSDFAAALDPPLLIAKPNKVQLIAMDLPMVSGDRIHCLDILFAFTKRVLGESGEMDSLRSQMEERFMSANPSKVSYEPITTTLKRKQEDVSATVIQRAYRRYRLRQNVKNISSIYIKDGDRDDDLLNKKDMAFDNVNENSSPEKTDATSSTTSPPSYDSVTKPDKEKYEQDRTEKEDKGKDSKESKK
T1 sequence (Q15858 whole entry): as above
T2 sequence (Q14524 whole entry): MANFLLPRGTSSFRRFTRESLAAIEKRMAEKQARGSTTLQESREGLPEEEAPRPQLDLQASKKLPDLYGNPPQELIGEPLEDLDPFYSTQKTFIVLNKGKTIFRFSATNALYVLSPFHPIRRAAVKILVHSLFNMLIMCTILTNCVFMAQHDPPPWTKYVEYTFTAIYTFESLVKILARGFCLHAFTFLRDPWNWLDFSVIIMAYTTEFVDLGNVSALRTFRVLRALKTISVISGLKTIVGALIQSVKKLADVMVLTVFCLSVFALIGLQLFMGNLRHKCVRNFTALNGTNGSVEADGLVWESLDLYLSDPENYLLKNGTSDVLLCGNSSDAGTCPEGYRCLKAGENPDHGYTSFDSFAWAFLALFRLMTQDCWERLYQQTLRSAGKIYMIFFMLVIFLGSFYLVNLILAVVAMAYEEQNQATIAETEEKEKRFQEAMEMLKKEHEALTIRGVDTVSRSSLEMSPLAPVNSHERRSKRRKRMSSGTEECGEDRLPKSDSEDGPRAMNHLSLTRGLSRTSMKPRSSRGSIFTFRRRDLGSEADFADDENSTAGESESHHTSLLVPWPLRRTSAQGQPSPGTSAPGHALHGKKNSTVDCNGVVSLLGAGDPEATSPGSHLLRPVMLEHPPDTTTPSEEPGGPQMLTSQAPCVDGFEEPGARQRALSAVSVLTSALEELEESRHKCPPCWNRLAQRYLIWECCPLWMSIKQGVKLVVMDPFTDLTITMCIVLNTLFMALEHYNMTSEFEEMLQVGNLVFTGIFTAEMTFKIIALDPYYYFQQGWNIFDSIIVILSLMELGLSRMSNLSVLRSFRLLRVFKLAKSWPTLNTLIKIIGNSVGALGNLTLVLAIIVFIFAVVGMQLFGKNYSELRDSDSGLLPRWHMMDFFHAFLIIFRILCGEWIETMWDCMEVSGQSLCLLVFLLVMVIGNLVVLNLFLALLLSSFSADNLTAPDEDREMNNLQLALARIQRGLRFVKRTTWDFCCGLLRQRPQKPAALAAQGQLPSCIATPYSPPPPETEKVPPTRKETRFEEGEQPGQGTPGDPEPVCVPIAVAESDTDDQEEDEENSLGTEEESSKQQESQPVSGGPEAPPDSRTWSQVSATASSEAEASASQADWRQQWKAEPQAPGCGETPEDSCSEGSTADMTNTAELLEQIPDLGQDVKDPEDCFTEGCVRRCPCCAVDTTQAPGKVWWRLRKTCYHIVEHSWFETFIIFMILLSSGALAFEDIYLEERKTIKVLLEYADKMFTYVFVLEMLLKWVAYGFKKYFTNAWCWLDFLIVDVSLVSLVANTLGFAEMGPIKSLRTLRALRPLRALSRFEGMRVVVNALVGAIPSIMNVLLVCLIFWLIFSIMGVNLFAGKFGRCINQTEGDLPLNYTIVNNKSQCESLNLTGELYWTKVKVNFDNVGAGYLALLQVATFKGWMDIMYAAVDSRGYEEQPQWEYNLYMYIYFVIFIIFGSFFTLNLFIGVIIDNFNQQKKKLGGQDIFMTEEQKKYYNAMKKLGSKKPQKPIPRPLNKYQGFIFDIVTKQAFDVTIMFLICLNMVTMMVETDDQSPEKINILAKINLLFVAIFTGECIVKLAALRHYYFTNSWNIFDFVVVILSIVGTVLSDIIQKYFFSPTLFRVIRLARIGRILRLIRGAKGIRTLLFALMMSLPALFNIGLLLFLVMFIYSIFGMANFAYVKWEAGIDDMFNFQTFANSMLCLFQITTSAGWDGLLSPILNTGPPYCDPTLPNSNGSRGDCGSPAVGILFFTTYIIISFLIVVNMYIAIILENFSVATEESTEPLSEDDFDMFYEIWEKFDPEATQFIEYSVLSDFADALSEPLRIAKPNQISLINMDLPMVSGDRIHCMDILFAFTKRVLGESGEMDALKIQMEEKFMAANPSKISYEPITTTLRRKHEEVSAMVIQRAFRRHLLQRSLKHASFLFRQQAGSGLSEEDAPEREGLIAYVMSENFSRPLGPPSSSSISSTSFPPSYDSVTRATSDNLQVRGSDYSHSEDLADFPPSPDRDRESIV

sodium current remaining after use-dependent block, % of the initial value (human Nav1.7 channels) | SMILES | sodium currents in DRG neurons versus capsaicin alone [1] | Nav subtype selectivity (Nav1.7 sodium channels; Nav1.5 versus Nav1.7, thallium flux) | extracellular block of Nav1.7 (Nav1.7 sodium channels; doses of up to 1 mM, applied extracellularly, HEK cells) | extracellular concentration at which dose dependent block of Nav1.7 starts (Nav1.7 sodium channels; thallium flux, HEK cells, FIG. 4) [millimolar] | extracellular block of Nav1.5 (Nav1.5 sodium channels; doses of up to 1 mM, applied extracellularly) | extracellular concentration at which dose dependent block of Nav1.5 starts (Nav1.5 sodium channels; thallium flux, FIG. 3) [millimolar] | inhibition of cough [2] [%] | Cough Count [2]
about 14% | CCCC(C(=O)Nc1c(C)cccc1C)[N+]1(CC)CCCCC1 (centres unmarked) [Compound 2, 1-(1-((2,6-dimethylphenyl)amino)-1-oxopentan-2-yl)-1-ethylpiperidin-1-ium] |  |  |  |  |  |  | 65 | 8 and 0 (5×) and 2 (2×) and 13 and 11 and 6 and 1
about 62% | CC[N+](CC)(CC)CC(=O)Nc1c(C)cccc1C [QX-314, reference compound] | robust block |  |  |  |  |  |  | 

SMILES | sodium current remaining after use-dependent block, % of the initial value (human Nav1.7 channels) | sodium currents in DRG neurons versus capsaicin alone [1] | Nav subtype selectivity (Nav1.7 sodium channels; Nav1.5 versus Nav1.7, thallium flux) | extracellular block of Nav1.7 (Nav1.7 sodium channels; doses of up to 1 mM, applied extracellularly, HEK cells) | extracellular concentration at which dose dependent block of Nav1.7 starts (Nav1.7 sodium channels; thallium flux, HEK cells, FIG. 4) [millimolar] | extracellular block of Nav1.5 (Nav1.5 sodium channels; doses of up to 1 mM, applied extracellularly) | extracellular concentration at which dose dependent block of Nav1.5 starts (Nav1.5 sodium channels; thallium flux, FIG. 3) [millimolar] | inhibition of cough [2] [%] | Cough Count [2]
CCC[N+]1(C(CC)C(=O)Nc2c(C)cccc2C)CCCCC1 (centres unmarked) [Compound 1, 1-(1-(2,6-dimethylphenylamino)-1-oxobutan-2-yl)-1-propylpiperidinium chloride] | about 15% | considerably smaller | did not display any Nav subtype selectivity | did not exhibit significant extracellular block | ≥ 10 | did not exhibit significant extracellular block | ≥ 10 | 81 | 4 (2×) and 0 (7×) and 2 and 7 and 6
